US20240285600A1, “NOVEL MKRN1 INHIBITOR AND PHARMACEUTICAL COMPOSITION FOR PREVENTING OR TREATING OBESITY OR FATTY LIVER COMPRISING THE SAME” (UIF (University Industry Foundation), Yosei University, priority 2023, published 2024)

What was measured:
HepG2 cells = test: Fat accumulation in HepG2 cells treated with AMPK activator and PAOA; assay type: cell-based; details: PAOA 1 mM, FIG. 8
Procedure: Specifically, HepG2 cells were cultured, and then treated with various types of AMPK activators. Thereafter, the cells were treated with palmitic acid and oleic acid (PAOA) at a concentration of 1 mM, and further cultured, and the degree of fat accumulation was then confirmed.

[1] = system: wild-type mice fed an HFHF diet; test: Anti-obesity/anti-steatohepatitis effect in mice fed an HFHF diet, ebastine after 4 weeks; assay type: in vivo; details: HFHF diet 20 weeks
Procedure: (§1) Body weights were measured once every 3 to 4 days for 20 weeks, and the liver was isolated at the end of the experiment. Thereafter, a histological examination was performed.

[2] = system: wild-type mice fed a CDAHFD; test: Anti-steatohepatitis effect in mice fed a CDAHFD, ebastine after 2 weeks; assay type: in vivo; details: CDAHFD 6 weeks, vs control
Procedure: Body weights were measured once every 3 to 4 days for 6 weeks, and the liver was isolated at the end of the experiment. Thereafter, a histological examination was performed.

[3] = system: wild-type mice fed an HFHF diet; test: Therapeutic effect on steatohepatitis in mice fed an HFHF diet, ebastine after 16 weeks; assay type: in vivo; details: HFHF diet 20 weeks
Procedure: as §1

AMPK = details: HepG2 cells, cultured for 16 or 24 hours, FIG. 9

What does the source list for `CC(C)(C)c1ccc(C(=O)CCCN2CCC(OC(c3ccccc3)c3ccccc3)CC2)cc1` [ebastine]?
degree of fat accumulation (HepG2 cells): effective in suppressing fat accumulation; weight of the liver ([1]; ebastine 5 mg/kg after 4 weeks, FIG. 13C): lowest; body weight gain ([1]; ebastine 1 and 5 mg/kg after 4 weeks, vs control, FIG. 13A): less; liver shape observed with the naked eye ([1]; ebastine after 4 weeks, FIG. 13B): close to a normal shape; expression level of MKRN1 in the liver (immunohistochemistry) ([1]; ebastine after 4 weeks, vs control): decreased; fat accumulation in the liver (H&E) ([1]; ebastine after 4 weeks, vs control, FIG. 13E): almost no fat accumulated in the liver; liver fibrosis (Sirius Red) ([1]; ebastine after 4 weeks, vs control, FIG. 13F): did not progress; liver inflammation (F4/80 IHC) ([1]; ebastine after 4 weeks, vs control, FIG. 13G): suppressed; body weight ([2]; ebastine 1 and 5 mg/kg after 2 weeks, FIG. 14A): no significant difference; liver condition observed with the naked eye ([2]; ebastine after 2 weeks, FIG. 14B): appeared similar; liver weight ([2]; ebastine after 2 weeks, FIG. 14C): no difference; expression level of MKRN1 in the liver (immunohistochemistry) ([2]; ebastine after 2 weeks, FIG. 14D): decreased; fat accumulation in the liver (H&E) ([2]; ebastine after 2 weeks, FIG. 14E): almost no fat accumulated in the liver; liver fibrosis (Sirius Red) ([2]; ebastine after 2 weeks, FIG. 14F): did not progress; liver inflammation (F4/80 IHC) ([2]; ebastine after 2 weeks, FIG. 14G): suppressed; weight of the liver ([3]; ebastine 5 mg/kg after 16 weeks, FIG. 15C): lowest; body weight change ([3]; ebastine 1 and 5 mg/kg after 16 weeks (for 4 weeks), vs control, FIG. 15A): no difference; liver shape observed with the naked eye ([3]; ebastine after 16 weeks, FIG. 15B): close to a normal shape; expression level of MKRN1 in the liver (immunohistochemistry) ([3]; ebastine after 16 weeks, vs control, FIG. 15D): decreased; fat accumulation in the liver (H&E) ([3]; ebastine after 16 weeks, vs control, FIG. 15E): almost no fat accumulated in the liver; liver fibrosis (Sirius Red) ([3]; ebastine after 16 weeks, vs control, FIG. 15F): did not progress; liver inflammation (F4/80 IHC) ([3]; ebastine after 16 weeks, vs control, FIG. 15G): suppressed; expression levels of fibrosis- and inflammation-related genes in the liver (RT-PCR) ([3]; ebastine after 16 weeks, vs control, FIG. 15H): generally suppressed; amount of AMPK (AMPK): increased; amount of phosphorylated AMPK (AMPK): increased
